Source: patent US7981893B2, “Heteroaryl compounds, compositions thereof, and methods of treatment therewith” (Signal Pharmaceuticals, LLC, priority 2006, dated 2011)

melting point | Structure (SMILES)
338 to 340 °C | O=C1CCC(Cn2c(=O)[nH]c3ncc(-c4ccc(O)cc4)nc32)N1 (centres unmarked) [Compound 198, 6-(4-Hydroxyphenyl)-1-((5-oxopyrrolidin-2-yl)methyl)-1H-imidazo[4,5-b]pyrazin-2(3H)-one]
303 to 305 °C | O=c1[nH]c2ncc(-c3ccc(-c4n[nH]c(C(F)(F)F)n4)cc3)nc2n1CC1CCCCC1 [Compound 163, 1-(Cyclohexylmethyl)-6-(4-(5-(trifluoromethyl)-1H-1,2,4-triazol-3-yl)phenyl)-1H-imidazo[4,5-b]pyrazin-2(3H)-one]
> 250 °C | Nc1ncc(-c2cnc3[nH]c(=O)n(CC4CCCCC4)c3n2)cn1 [Compound 236, 6-(2-aminopyrimidin-5-yl)-1-(cyclohexylmethyl)-1H-imidazo[4,5-b]pyrazin-2(3H)-one]
256 to 258 °C | O=c1[nH]c2ncc(-c3ccc(O)cc3)nc2n1CC1CCOC1 (centres unmarked) [Compound 172, 6-(4-Hydroxyphenyl)-1-((tetrahydrofuran-3-yl)methyl)-1H-imidazo[4,5-b]pyrazin-2(3H)-one]
> 250 °C | COCCNc1ncc(-c2cnc3[nH]c(=O)n(CC4CCCCC4)c3n2)cn1 [Compound 212, 1-(Cyclohexylmethyl)-6-(2-(2-methoxyethylamino)pyrimidin-5-yl)-1H-imidazo[4,5-b]pyrazin-2(3H)-one]
238 to 240 °C | O=c1[nH]c2ncc(-c3cn[nH]c3)nc2n1CC1CCOCC1 [Compound 183, 6-(1H-Pyrazol-4-yl)-1-((tetrahydro-2H-pyran-4-yl)methyl)-1H-imidazo[4,5-b]pyrazin-2(3H)-one]
250 to 254 °C (dec.) | Cc1nc(-c2ccc(-c3cnc4[nH]c(=O)n(CC5CCOCC5)c4n3)cc2)[nH]c1C [Compound 199, 6-(4-(4,5-Dimethyl-1H-imidazol-2-yl)phenyl)-1-((tetrahydro-2H-pyran-4-yl)methyl)-1H-imidazo[4,5-b]pyrazin-2(3H)-one]
258 to 260 °C | C[C@H](c1ccccc1)n1c(=O)[nH]c2ncc(-c3ccc(-c4nc[nH]n4)cc3)nc21 [Compound 249, (R)-6-(4-(1H-1,2,4-triazol-3-yl)phenyl)-1-(1-phenylethyl)-1H-imidazo[4,5-b]pyrazin-2(3H)-one]
281 to 283 °C | O=c1[nH]c2ncc(-c3ccc(-c4n[nH]c(CN5CCOCC5)n4)cc3)nc2n1CC1CCOCC1 [Compound 175, 6-(4-(5-(Morpholinomethyl)-1H-1,2,4-triazol-3-yl)phenyl)-1-((tetrahydro-2H-pyran-4-yl)methyl)-1H-imidazo[4,5-b]pyrazin-2(3H)-one]
273 to 275 °C | CNC(=O)c1ccc(-c2cnc3[nH]c(=O)n(CC4CCCCC4)c3n2)cc1 [Compound 99, 4-(3-(Cyclohexylmethyl)-2-oxo-2,3-dihydro-1H-imidazo[4,5-b]pyrazin-5-yl)-N-methylbenzamide]
300 to 301 °C | O=C1CCCN1CCn1c(=O)[nH]c2ncc(-c3ccc(-c4nc[nH]n4)cc3)nc21 [Compound 203, 6-(4-(1H-1,2,4-Triazol-3-yl)phenyl)-1-(2-(2-oxopyrrolidin-1-yl)ethyl)-1H-imidazo[4,5-b]pyrazin-2(3H)-one]
326 to 329 °C | Cl.NCc1nc(-c2ccc(-c3cnc4[nH]c(=O)n(CC5CCCCC5)c4n3)cc2)n[nH]1
292 to 294 °C | O=c1[nH]c2ncc(-c3ccc(-c4cc[nH]n4)cc3)nc2n1CC1CCCCC1 [Compound 160, 6-(4-(1H-Pyrazol-3-yl)phenyl)-1-(cyclohexylmethyl)-1H-imidazo[4,5-b]pyrazin-2(3H)-one]
283 to 284 °C | O=c1[nH]c2ncc(-c3ccc(O)cc3)nc2n1CCc1ccccc1 [Compound 121, 6-(4-Hydroxyphenyl)-1-phenethyl-1H-imidazo[4,5-b]pyrazin-2(3H)-one]
273 to 275 °C | NC(=O)c1ccc(-c2cnc3[nH]c(=O)n(CC4CCOCC4)c3n2)cc1 [Compound 143, 4-(2-oxo-3-((Tetrahydro-2H-pyran-4-yl)methyl)-2,3-dihydro-1H-imidazo[4,5-b]pyrazin-5-yl)benzamide]
> 400 °C | O=c1[nH]c2ncc(-c3ccc(O)nc3)nc2n1CC1CCCCC1 [Compound 135, 1-(Cyclohexylmethyl)-6-(6-hydroxypyridin-3-yl)-1H-imidazo[4,5-b]pyrazin-2(3H)-one]
382 to 383 °C | O=c1[nH]c2ncc(-c3ccc(O)cc3)nc2n1C1CCOCC1 [Compound 132, 6-(4-Hydroxyphenyl)-1-(tetrahydro-2H-pyran-4-yl)-1H-imidazo[4,5-b]pyrazin-2(3H)-one]
> 260 °C | CNc1ccc(-c2cnc3[nH]c(=O)n(CC4CCOCC4)c3n2)cn1 [Compound 235, 6-(6-(Methylamino)pyridin-3-yl)-1-((tetrahydro-2H-pyran-4-yl)methyl)-1H-imidazo[4,5-b]pyrazin-2(3H)-one]
305 to 306 °C | O=C1CCCN1CCCn1c(=O)[nH]c2ncc(-c3ccc(O)cc3)nc21 [Compound 176, 6-(4-Hydroxyphenyl)-1-(3-(2-oxopyrrolidin-1-yl)propyl)-1H-imidazo[4,5-b]pyrazin-2(3H)-one]

melting point | Structure (SMILES)
264 to 268 °C | CC(C)NC(=O)c1ccc(-c2cnc3[nH]c(=O)n(CC4CCCCC4)c3n2)cc1 [Compound 104, 4-(3-(Cyclohexylmethyl)-2-oxo-2,3-dihydro-1H-imidazo[4,5-b]pyrazin-5-yl)-N-isopropylbenzamide]
305 to 308 °C | CC(C)c1nc(-c2ccc(-c3cnc4[nH]c(=O)n(CC5CCOCC5)c4n3)cc2)n[nH]1 [Compound 186, 6-(4-(5-Isopropyl-1H-1,2,4-triazol-3-yl)phenyl)-1-((tetrahydro-2H-pyran-4-yl)methyl)-1H-imidazo[4,5-b]pyrazin-2(3H)-one]
295 to 297 °C | O=c1[nH]c2ncc(-c3ccc(-c4nnc[nH]4)cc3)nc2n1CCN1CCOCC1 [Compound 193, 6-(4-(4H-1,2,4-Triazol-3-yl)phenyl)-1-(2-morpholinoethyl)-1H-imidazo[4,5-b]pyrazin-2(3H)-one]
> 250 °C | CC(C)(O)c1ccc(-c2cnc3[nH]c(=O)n(CC4CCCCC4)c3n2)cn1 [Compound 240, 1-(cyclohexylmethyl)-6-(6-(2-hydroxypropan-2-yl)pyridin-3-yl)-1H-imidazo[4,5-b]pyrazin-2(3H)-one]
275 to 277 °C | O=c1[nH]c2ncc(-c3ccc(CO)cc3)nc2n1CC1CCCCC1 [Compound 100, 1-(Cyclohexylmethyl)-6-(4-(hydroxymethyl)phenyl)-1H-imidazo[4,5-b]pyrazin-2(3H)-one]
305 to 307 °C | O=c1[nH]c2ncc(-c3ccc(-c4cn[nH]c4)cc3)nc2n1CC1CCCCC1 [Compound 161, 6-(4-(1H-Pyrazol-4-yl)phenyl)-1-(cyclohexylmethyl)-1H-imidazo[4,5-b]pyrazin-2(3H)-one]
217 to 220 °C | O=c1[nH]c2ncc(-c3ccc4[nH]cnc4c3)nc2n1CC1CCCCC1 [Compound 148, 6-(1H-Benzo[d]imidazol-5-yl)-1-(cyclohexylmethyl)-1H-imidazo[4,5-b]pyrazin-2(3H)-one]
246 to 248 °C | O=c1[nH]c2ncc(-c3cn[nH]c3)nc2n1CC1CCCCC1 [Compound 126, 1-(Cyclohexylmethyl)-6-(1H-pyrazol-4-yl)-1H-imidazo[4,5-b]pyrazin-2(3H)-one]
353 to 356 °C | O=c1[nH]c2ncc(-c3ccc(-c4nc[nH]n4)nc3)nc2n1CC1CCOCC1 [Compound 202, 6-(6-(1H-1,2,4-Triazol-3-yl)pyridin-3-yl)-1-((tetrahydro-2H-pyran-4-yl)methyl)-1H-imidazo[4,5-b]pyrazin-2(3H)-one]
235 to 237 °C | COc1ccc(-c2cnc3[nH]c(=O)n(CC4CCCCC4)c3n2)cn1 [Compound 131, 1-(Cyclohexylmethyl)-6-(6-methoxypyridin-3-yl)-1H-imidazo[4,5-b]pyrazin-2(3H)-one]
253 to 255 °C | COC(=O)c1ccc(-c2cnc3[nH]c(=O)n(CC4CCCCC4)c3n2)cc1 [Compound 97, Methyl 4-(3-(cyclohexylmethyl)-2-oxo-2,3-dihydro-1H-imidazo[4,5-b]pyrazin-5-yl)benzoate]
337 to 339 °C | O=C1NCc2cc(-c3cnc4[nH]c(=O)n(CC5CCCCC5)c4n3)ccc21 [Compound 127, 1-(Cyclohexylmethyl)-6-(1-oxoisoindolin-5-yl)-1H-imidazo[4,5-b]pyrazin-2(3H)-one]
313 to 316 °C | O=C1Cc2cc(-c3cnc4[nH]c(=O)n(CC5CCCCC5)c4n3)ccc2N1 [Compound 129, 1-(Cyclohexylmethyl)-6-(2-oxoindolin-5-yl)-1H-imidazo[4,5-b]pyrazin-2(3H)-one]
290 to 292 °C | Cc1nc(-c2ccc(-c3cnc4[nH]c(=O)n(CCC5CCOCC5)c4n3)cc2)n[nH]1 [Compound 215, 6-(4-(5-methyl-1H-1,2,4-triazol-3-yl)phenyl)-1-(2-(tetrahydro-2H-pyran-4-yl)ethyl)-1H-imidazo[4,5-b]pyrazin-2(3H)-one]
208 to 210 °C | COCCCn1c(=O)[nH]c2ncc(-c3ccc(O)cc3)nc21 [Compound 118, 6-(4-Hydroxyphenyl)-1-(3-methoxypropyl)-1H-imidazo[4,5-b]pyrazin-2(3H)-one]
> 260 °C | O=c1[nH]c2ncc(-c3cncnc3)nc2n1CC1CCCCC1 [Compound 230, 1-(Cyclohexylmethyl)-6-(pyrimidin-5-yl)-1H-imidazo[4,5-b]pyrazin-2(3H)-one]
233 to 236 °C | NC(=O)c1ccc(-c2cnc3[nH]c(=O)n(CCC4CCOCC4)c3n2)cc1 [Compound 149, 4-(2-oxo-3-(2-(Tetrahydro-2H-pyran-4-yl)ethyl)-2,3-dihydro-1H-imidazo[4,5-b]pyrazin-5-yl)benzamide]
328 to 330 °C | CNC(=O)c1ccc(-c2cnc3[nH]c(=O)n(CC4CCOCC4)c3n2)cc1 [Compound 142, N-Methyl-4-(2-oxo-3-((tetrahydro-2H-pyran-4-yl)methyl)-2,3-dihydro-1H-imidazo[4,5-b]pyrazin-5-yl)benzamide]
> 350 °C | O=C(O)c1ccc(-c2cnc3[nH]c(=O)n(CC4CCCCC4)c3n2)cc1 [Compound 116, 4-(3-(Cyclohexylmethyl)-2-oxo-2,3-dihydro-1H-imidazo[4,5-b]pyrazin-5-yl)benzoic acid]
